The text below walks through data of patent publication US8293231B2, “Methods and compositions for treating ischemia” (Blue Blood Biotech Corp., priority 2005, dated 2012).

Experiment [1] deals with HUVECs. The experiment is described as follows: Chemotaxis assay (Transwell). The format is cell-based, human. The method, then: (§1) The chemotactic motility of HUVECs was assayed using Transwell (Costar) with 6.5-mm diameter polycarbonate filters (8-μm pore size). The lower filter surface was coated with 10 μg gelatin (Sigma-Aldrich). Various concentrations of TMD23 in the absence or presence of 10 μg/mL polyclonal rabbit anti-TMD23 antibody or 10 ng/mL vascular endothelial growth factor (VEGF) (R & D Systems, Inc.) in M199 were placed in the lower wells. One hundred mL cell suspension containing 1×10^5 cells was loaded into each of upper well. The chamber was incubated at 37° C. for 4 h. Cells were fixed with methanol and stained with 4′,6′-diamidino-2-phenylindole (DAPI). Chemotaxis was quantified with optical microscopy (Leica) at 100× magnification using MetaMorph imaging software (Universal Imaging Corporation) by counting the cells that migrated to the filter's lower side. Five random fields in each well were counted. Each sample was assayed in triplicate, and assays were repeated three times. To determine the role of extracellular signal-regulated kinase 1/2 (ERK1/2), p38 mitogen-activated protein kinase (MAPK), and phosphatidylinositol 3-kinase (PI3 kinase)-protein kinase B/Akt (Akt) in TMD23-mediated cell migration, assays were performed in the presence of U0126, a MAPK/ERK kinase (MEK) inhibitor, SB 203580, a p38 MAPK inhibitor, and LY 294002, a PI3 kinase inhibitor. Cell viability as determined by trypan blue staining was not altered by treatment. 00126 was purchased from Promega, with SB 203580 and LY 294002 from Calbiochem.
as §1, with “hundred μL” for “hundred mL”, “MAPK/ERK kinase-(MEK)” for “MAPK/ERK kinase (MEK)”, “treatment. U0126” for “treatment. 00126”

Experiment [2] has as its system human melanoma A2058 cells in Matrigel. As to the kind of experiment: Effect of TMD23 on tumor neoangiogenesis. Format: in vivo, athymic nude mice. The protocol: To assess TMD23 effects on tumor neoangiogenesis, 1×10^6 human melanoma A2058 cells (ATCC® CRL-11147) were mixed with Matrigel (0.5 mL) containing heparin (60 U/mL) and various concentrations of TMD23 and subcutaneously injected into athymic nude mice. Matrigel plugs were harvested after 18 days and frozen in liquid nitrogen. Blood vessels were detected by immunohistochemistry using anti-CD31 antibody as described above. Microvessel density (MVD) was calculated by counting six highly vascularized fields in each section (200× magnification; MetaMorph software).

Experiment [3] is described as follows: Thrombomodulin activity assay (cofactor activity for thrombin-dependent protein C activation). Format: biochemical. The protocol: (§2) Cofactor activity of TMD2 and TMD23 for thrombin-dependent protein C activation was measured as described previously. Huang H C., et al Thrombomodulin-mediated cell adhesion: Involvement of its lectin-like domain. J Biol. Chem. 2003; 278:46750-46759.
(§3) Cofactor activity of TMD2 and TMD23 for thrombin-dependent protein C activation was measured as described previously. Huang H C., et al Thrombomodulin-mediated cell adhesion: Involvement of its lectin-like domain. J Biol. Chem. 2003; 278: 46750-46759.

Experiment [4] has as its target thrombin-dependent protein C activation (Homo sapiens, UniProt P00734). The experiment is described as above. Format: biochemical. Particulars: on an equal molar basis. The method, then:
as §2, §3

The test system of experiment [5] is ERK1/2, p38 MAPK, Akt, and eNOS phosphorylation in HUVECs. The experiment is described as follows: Assay of ERK1/2, p38 MAPK, Akt and eNOS phosphorylation (Western blotting). The format is cell-based, human. The protocol:
HUVECs were cultured to confluence in a 6-cm-diameter dish and incubated in M199 containing 1% FBS for 18 h. Cells were washed and incubated with serum-free M199 for 6 h, and treated with the indicated concentration of TMD23. Cell lysates were separated by SDS-PAGE, and the levels of phospho-ERK1/2 (Tyr 204) and total ERK1/2, phospho-p38 (Thr-180/Tyr-182) and p38, phosphor-Akt (Ser-473) and Akt, and phospho-eNOS (Ser-1173) and eNOS were detected by Western blotting with specific antibodies (Cell Signaling Technology).

“TMD23: Recombinant human thrombomodulin fragment, amino acids Ala242-Ser515 of SEQ ID NO: 2: six EGF-like structures (D2) plus Ser/Thr-rich domain D3”: the “Effect on HUVEC migration compared with VEGF (10 ng/mL)” value in experiment [1] (10 ng/mL TMD23) is “comparable with that of VEGF”. Besides, the “Migratory activity increased over the control” value in experiment [1] (10 ng/mL TMD23, 4 h) was determined as 80%. Moreover, in experiment [1] (FIG. 2B), the “Chemotactic response in HUVECs” value is on record as “markedly induced a dose-dependent chemotactic response”. Moreover, the “Blood vessels in Matrigel plugs (CD31 staining)” value in experiment [2] (18 days) is given as “significantly more blood vessels”. Besides, in experiment [2] (FIG. 8A), the “Weight of tumor contained in a Matrigel plug” value is on record as “increased the weight of tumor”. In addition, the “Microvessel density (MVD)” value in experiment [2] (FIG. 8C) is listed as “increased microvessel density”. The “Tumor size developed by Matrigel plugs containing A2058 cells” value in experiment [2] (compared with A2058 cells alone, 18 days) is “bigger”. The “Cofactor activity for thrombin-dependent protein C activation” value in experiment [3] is 2,650 pmol of APC formed/min/mg TMD23. The “Cofactor activity higher than that of TMD2” value in experiment [4] turned out to be 25%. For the same substance, in experiment [5] (FIG. 3B), the “Time of maximal phosphorylation (ERK, p38, and Akt)” value is reported as “about 30 min”; the “Time of maximal phosphorylation (eNOS)” value is listed as around 120 min. Moreover, the “ERK1/2, p38, Akt, and eNOS phosphorylation in HUVECs” value in experiment [5] (total proteins remained constant, FIG. 3A) was “dose-dependently induced”.
